Test results published in patent US10485235B2, “Aryloxypyrimidinyl ethers as herbicides” (FMC Corporation, priority 2015, dated 2019).

Legend:
Format in all cases: in vivo
[1] = tested on: barnyardgrass (Echinochloa crus-galli); assay: Test A preemergence, barnyardgrass; details: Preemergence, 0 to 100 scale (0 no effect, 100 complete control)
How it was run: (§1)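 Compounds, formulated in a surfactant-containing solvent mixture that is non-phytotoxic, are sprayed onto soil after seeding (preemergence) or onto young plants, one to two leaves and 2 to 10 cm high (postemergence). Response is scored visually after around 10 days, where 0 means no effect and 100 means complete control.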

kochia (Kochia scoparia) [2] = assay: Test A preemergence, kochia; details: Preemergence, 0 to 100 scale (0 no effect, 100 complete control)
How it was run: as §1

[3] = tested on: ragweed (common ragweed, Ambrosia elatior); assay: Test A preemergence, ragweed; details: Preemergence, 0 to 100 scale (0 no effect, 100 complete control)
How it was run: as §1

[4] = tested on: ryegrass, Italian (Italian ryegrass, Lolium multiflorum); assay: Test A preemergence, Italian ryegrass; details: Preemergence, 0 to 100 scale (0 no effect, 100 complete control)
How it was run: as §1

[5] = tested on: foxtail, giant (giant foxtail, Setaria faberii); assay: Test A preemergence, giant foxtail; details: Preemergence, 0 to 100 scale (0 no effect, 100 complete control)
How it was run: as §1

[6] = tested on: pigweed (Amaranthus retroflexus); assay: Test A preemergence, pigweed; details: Preemergence, 0 to 100 scale (0 no effect, 100 complete control)
How it was run: as §1

[7] = tested on: barnyardgrass (Echinochloa crus-galli); assay: Test A postemergence, barnyardgrass
How it was run: as §1

kochia (Kochia scoparia) [8] = assay: Test A postemergence, kochia
How it was run: as §1

[9] = tested on: ragweed (common ragweed, Ambrosia elatior); assay: Test A postemergence, ragweed
How it was run: as §1

[10] = tested on: ryegrass, Italian (Italian ryegrass, Lolium multiflorum); assay: Test A postemergence, Italian ryegrass
How it was run: as §1

[11] = tested on: foxtail, giant (giant foxtail, Setaria faberii); assay: Test A postemergence, giant foxtail
How it was run: as §1

[12] = tested on: pigweed (Amaranthus retroflexus); assay: Test A postemergence, pigweed
How it was run: as §1

[13] = tested on: wheat (Triticum aestivum); assay: Test A postemergence, wheat
How it was run: as §1

corn (Zea mays) = assay: Test A postemergence, corn
How it was run: as §1

[14] = tested on: blackgrass (Alopecurus myosuroides); assay: Test A postemergence, blackgrass
How it was run: as §1

[15] = tested on: galium (catchweed bedstraw, Galium aparine); assay: Test A postemergence, galium
How it was run: as §1

rice (Oryza sativa) = assay: Test B flooded paddy test, rice; details: 250 g ai/ha, Flood; visual rating after 13 to 15 days; scale 0 to 100, 0 is no effect, 100 is complete control
How it was run: (§2)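 Visual ratings, 0 = no effect to 100 = complete control, versus controls after 13 to 15 days in greenhouse. Test compounds were added to paddy water kept 3 cm over the soil surface, on plants at 2-leaf stage.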

[16] = tested on: sedge, umbrella (small-flower umbrella sedge, Cyperus difformis); assay: Test B flooded paddy test, umbrella sedge; details: 250 g ai/ha, Flood; visual rating after 13 to 15 days; scale 0 to 100, 0 is no effect, 100 is complete control
How it was run: as §2

[17] = tested on: ducksalad (Heteranthera limosa); assay: Test B flooded paddy test, ducksalad; details: 250 g ai/ha, Flood; visual rating after 13 to 15 days; scale 0 to 100, 0 is no effect, 100 is complete control
How it was run: as §2

[18] = tested on: barnyardgrass (Echinochloa crus-galli); assay: Test B flooded paddy test, barnyardgrass; details: 250 g ai/ha, Flood; visual rating after 13 to 15 days; scale 0 to 100, 0 is no effect, 100 is complete control
How it was run: as §2

[19] = 125 g ai/ha, postemergence, 0 to 100 scale, 0 is no effect, 100 is complete control, approximately 10 days
[20] = Postemergence, 31 g ai/ha, 0 to 100 scale (0 no effect, 100 complete control)

Row | Structure (SMILES) | Plant response rating, Barnyardgrass ([1]; 31 g ai/ha) | Plant response rating, Barnyardgrass ([1]; 125 g ai/ha) | Plant response rating, Kochia (kochia (Kochia scoparia) [2]; 31 g ai/ha) | Plant response rating, Kochia (kochia (Kochia scoparia) [2]; 125 g ai/ha) | Plant response rating, Ragweed ([3]; 31 g ai/ha) | Plant response rating, Ragweed ([3]; 125 g ai/ha) | Plant response rating, Ryegrass, Italian ([4]; 31 g ai/ha) | Plant response rating, Ryegrass, Italian ([4]; 125 g ai/ha) | Plant response rating, Foxtail, Giant ([5]; 31 g ai/ha) | Plant response rating, Foxtail, Giant ([5]; 125 g ai/ha) | Plant response rating, Pigweed ([6]; 31 g ai/ha) | Plant response rating, Pigweed ([6]; 125 g ai/ha) | Plant response rating, Barnyardgrass [7, 19] | Plant response rating, Barnyardgrass [7, 20] | Plant response rating, Kochia (kochia (Kochia scoparia) [8]; [19]) | Plant response rating, Kochia (kochia (Kochia scoparia) [8]; [20]) | Plant response rating, Ragweed [9, 19] | Plant response rating, Ragweed [9, 20] | Plant response rating, Ryegrass, Italian [10, 19] | Plant response rating, Ryegrass, Italian [10, 20] | also measured
1 | N#Cc1cccc(Oc2ncc(Cl)cn2)c1OCCCC(F)(F)F [Compound 72] | 10 | 80 | 0 | 10 | 0 | 0 | 0 | 20 | 10 | 90 | 0 | 60 | 30 | 10 | 70 | 30 | 10 | 0 | 10 | 0 | Plant response rating, Foxtail, Giant [11, 19]: 40; Plant response rating, Foxtail, Giant [11, 20]: 10; Plant response rating, Pigweed [12, 19]: 60; Plant response rating, Pigweed [12, 20]: 30; Plant response rating, Wheat [13, 19]: 0; Plant response rating, Wheat [13, 20]: 0; Plant response rating, Corn (corn (Zea mays); [19]): 20; Plant response rating, Corn (corn (Zea mays); [20]): 10; Plant response rating, Blackgrass [14, 19]: 20; Plant response rating, Blackgrass [14, 20]: 0; Plant response rating, Galium [15, 19]: 60; Plant response rating, Galium [15, 20]: 20; Plant response rating, Rice (rice (Oryza sativa)): 0; Plant response rating, Sedge, Umbrella [16]: 90; Plant response rating, Ducksalad [17]: 100; Plant response rating, Barnyardgrass [18]: 25
2 | O=C(COc1c(Br)cccc1Oc1ncc(Cl)cn1)C(F)(F)C(F)(F)F [Compound 73] | 0 | 0 | 0 | 0 | 0 | 0 | 0 | 0 | 0 | 0 | 40 | 50 | 10 | 0 | 50 | 0 | 0 | 0 | 0 | 0 | Plant response rating, Foxtail, Giant [11, 19]: 10; Plant response rating, Foxtail, Giant [11, 20]: 0; Plant response rating, Pigweed [12, 19]: 60; Plant response rating, Pigweed [12, 20]: 30; Plant response rating, Wheat [13, 19]: 0; Plant response rating, Wheat [13, 20]: 0; Plant response rating, Corn (corn (Zea mays); [19]): 10; Plant response rating, Corn (corn (Zea mays); [20]): 0; Plant response rating, Blackgrass [14, 19]: 20; Plant response rating, Blackgrass [14, 20]: 0; Plant response rating, Galium [15, 19]: 40; Plant response rating, Galium [15, 20]: 10; Plant response rating, Rice (rice (Oryza sativa)): 0; Plant response rating, Sedge, Umbrella [16]: 0; Plant response rating, Ducksalad [17]: 0; Plant response rating, Barnyardgrass [18]: 0
3 | N#Cc1cccc(Oc2ncc(Cl)cn2)c1OCC(=O)C(F)(F)C(F)(F)F [Compound 74] | 0 | 30 | 0 | 0 | 0 | 0 | 0 | 0 | 0 | 70 | 60 | 80 | 20 | 0 | 20 | 0 | 20 | 20 | 0 | 0 | Plant response rating, Foxtail, Giant [11, 19]: 40; Plant response rating, Foxtail, Giant [11, 20]: 0; Plant response rating, Pigweed [12, 19]: 70; Plant response rating, Pigweed [12, 20]: 20; Plant response rating, Wheat [13, 19]: 0; Plant response rating, Wheat [13, 20]: 0; Plant response rating, Corn (corn (Zea mays); [19]): 20; Plant response rating, Corn (corn (Zea mays); [20]): 0; Plant response rating, Blackgrass [14, 19]: 0; Plant response rating, Blackgrass [14, 20]: 0; Plant response rating, Galium [15, 19]: 30; Plant response rating, Galium [15, 20]: 0; Plant response rating, Rice (rice (Oryza sativa)): 0; Plant response rating, Sedge, Umbrella [16]: 0; Plant response rating, Ducksalad [17]: 0; Plant response rating, Barnyardgrass [18]: 0
4 | CCC(=O)COc1c(C#N)cccc1Oc1ncc(Cl)cn1 [Compound 75] | 0 | 50 | 0 | 60 | 0 | 0 | 0 | 0 | 0 | 40 | 50 | 100 | 0 | 0 | 20 | 10 | 0 | 0 | 0 | 0 | Plant response rating, Foxtail, Giant [11, 19]: 0; Plant response rating, Foxtail, Giant [11, 20]: 0; Plant response rating, Pigweed [12, 19]: 20; Plant response rating, Pigweed [12, 20]: 10; Plant response rating, Wheat [13, 19]: 0; Plant response rating, Wheat [13, 20]: 0; Plant response rating, Corn (corn (Zea mays); [19]): 10; Plant response rating, Corn (corn (Zea mays); [20]): 0; Plant response rating, Blackgrass [14, 19]: 0; Plant response rating, Blackgrass [14, 20]: 0; Plant response rating, Galium [15, 19]: 20; Plant response rating, Galium [15, 20]: 10; Plant response rating, Rice (rice (Oryza sativa)): 0; Plant response rating, Sedge, Umbrella [16]: 0; Plant response rating, Ducksalad [17]: 30; Plant response rating, Barnyardgrass [18]: 0
5 | CCC(=O)COc1c(Br)cccc1Oc1ncc(Cl)cn1 [Compound 76] | 20 | 40 | 0 | 0 | 0 | 0 | 0 | 10 | 10 | 70 | 0 | 80 | 20 | 0 | 10 | 0 | 0 | 0 | 0 | 0 | Plant response rating, Foxtail, Giant [11, 19]: 40; Plant response rating, Foxtail, Giant [11, 20]: 10; Plant response rating, Pigweed [12, 19]: 30; Plant response rating, Pigweed [12, 20]: 10; Plant response rating, Wheat [13, 19]: 0; Plant response rating, Wheat [13, 20]: 0; Plant response rating, Corn (corn (Zea mays); [19]): 10; Plant response rating, Corn (corn (Zea mays); [20]): 0; Plant response rating, Blackgrass [14, 19]: 10; Plant response rating, Blackgrass [14, 20]: 0; Plant response rating, Galium [15, 19]: 20; Plant response rating, Galium [15, 20]: 10; Plant response rating, Rice (rice (Oryza sativa)): 10; Plant response rating, Sedge, Umbrella [16]: 70; Plant response rating, Ducksalad [17]: 90; Plant response rating, Barnyardgrass [18]: 10
